The target of data set [1] is PI3Kγ (Homo sapiens, UniProt P48736). The data set is described as follows: PI3K-gamma fluorescence polarization assay. To be noted: read-out: PI3Kγ Median IC50. The data set is classed as biochemical. On the technique in general: Polarisation of emitted light reports the rotation of a fluorescent probe.
Data set [2] deals with mTOR (Homo sapiens, UniProt P42345). As to the kind of experiment: mTOR enzyme assay (DELFIA format, His6-S6K substrate). The data set is classed as biochemical. Conditions: read-out: mTOR Kinase Median IC50.
Data set [3] addresses PI3Kα (Homo sapiens, UniProt P42336). The data set is described as follows: PI3K-alpha fluorescence polarization assay. The data set is classed as biochemical. Conditions: read-out: PI3Kα Median IC50.

From US20090298820A1, “3-SUBSTITUTED-1H-PYRROLO[2,3-B]PYRIDINE AND 3-SUBSTITUTED-1H-PYRROLO[3,2-B]PYRIDINE COMPOUNDS, THEIR USE AS MTOR KINASE AND PI3 KINASE INHIBITORS, AND THEIR SYNTHESES” (Wyeth, priority 2008, published 2009) come the findings set out here.

Each structure is given as a SMILES string. pIC50: −log10 of the molar value. Bounds are passed on as bounds.

The pIC50 is the negative decadic logarithm of the IC50, by convention in mol/L. What is called melting point is the temperature of the solid-liquid transition.

Sequence of PI3Kα (P42336 whole entry, species assumed): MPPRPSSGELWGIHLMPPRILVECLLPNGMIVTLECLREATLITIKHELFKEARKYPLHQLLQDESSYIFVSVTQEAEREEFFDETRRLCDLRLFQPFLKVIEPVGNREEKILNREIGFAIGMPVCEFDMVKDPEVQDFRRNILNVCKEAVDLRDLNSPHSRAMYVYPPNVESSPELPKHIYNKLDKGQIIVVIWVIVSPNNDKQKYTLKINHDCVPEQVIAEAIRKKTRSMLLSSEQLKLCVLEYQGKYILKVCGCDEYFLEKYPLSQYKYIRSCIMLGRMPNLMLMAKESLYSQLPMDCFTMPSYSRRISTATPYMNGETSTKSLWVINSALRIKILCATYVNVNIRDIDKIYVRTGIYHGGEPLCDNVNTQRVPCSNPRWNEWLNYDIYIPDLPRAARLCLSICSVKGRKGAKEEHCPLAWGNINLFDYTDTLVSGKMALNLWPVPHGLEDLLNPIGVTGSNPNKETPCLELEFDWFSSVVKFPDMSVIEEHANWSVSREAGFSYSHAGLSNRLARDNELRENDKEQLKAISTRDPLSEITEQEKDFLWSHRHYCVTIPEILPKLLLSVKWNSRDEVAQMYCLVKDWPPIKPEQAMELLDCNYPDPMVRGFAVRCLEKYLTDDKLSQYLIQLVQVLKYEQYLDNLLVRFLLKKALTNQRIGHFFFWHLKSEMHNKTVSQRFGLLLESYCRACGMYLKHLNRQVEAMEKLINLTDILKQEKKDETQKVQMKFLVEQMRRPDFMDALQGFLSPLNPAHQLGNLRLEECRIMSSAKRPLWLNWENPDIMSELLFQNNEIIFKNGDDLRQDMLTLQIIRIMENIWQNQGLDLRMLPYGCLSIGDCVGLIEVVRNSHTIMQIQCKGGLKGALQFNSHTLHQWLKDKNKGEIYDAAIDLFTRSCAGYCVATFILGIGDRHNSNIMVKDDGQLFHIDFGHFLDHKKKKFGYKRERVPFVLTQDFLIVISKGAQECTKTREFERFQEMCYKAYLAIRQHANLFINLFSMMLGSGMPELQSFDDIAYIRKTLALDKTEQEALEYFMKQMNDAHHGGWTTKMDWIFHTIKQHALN
Sequence of PI3Kα (P27986 whole entry partner, species assumed): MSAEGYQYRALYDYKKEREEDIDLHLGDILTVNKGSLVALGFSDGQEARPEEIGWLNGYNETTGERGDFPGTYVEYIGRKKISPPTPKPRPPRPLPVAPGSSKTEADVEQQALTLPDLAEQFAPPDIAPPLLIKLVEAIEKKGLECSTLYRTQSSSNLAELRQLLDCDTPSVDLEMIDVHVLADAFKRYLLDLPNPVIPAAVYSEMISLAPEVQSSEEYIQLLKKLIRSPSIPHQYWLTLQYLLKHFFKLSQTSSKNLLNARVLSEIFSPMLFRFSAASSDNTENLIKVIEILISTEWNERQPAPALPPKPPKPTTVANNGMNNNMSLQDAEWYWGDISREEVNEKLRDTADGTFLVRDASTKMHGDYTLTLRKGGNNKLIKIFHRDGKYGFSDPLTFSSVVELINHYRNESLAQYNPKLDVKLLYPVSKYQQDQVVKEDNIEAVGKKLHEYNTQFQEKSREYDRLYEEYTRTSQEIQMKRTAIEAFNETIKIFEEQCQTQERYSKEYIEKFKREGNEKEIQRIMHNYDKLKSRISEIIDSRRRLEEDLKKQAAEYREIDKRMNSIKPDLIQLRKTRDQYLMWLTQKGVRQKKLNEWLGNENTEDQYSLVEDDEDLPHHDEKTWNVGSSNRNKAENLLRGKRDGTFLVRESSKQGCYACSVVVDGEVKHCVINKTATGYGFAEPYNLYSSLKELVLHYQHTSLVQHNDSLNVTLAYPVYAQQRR
Sequence of PI3Kγ (P48736 whole entry, species assumed): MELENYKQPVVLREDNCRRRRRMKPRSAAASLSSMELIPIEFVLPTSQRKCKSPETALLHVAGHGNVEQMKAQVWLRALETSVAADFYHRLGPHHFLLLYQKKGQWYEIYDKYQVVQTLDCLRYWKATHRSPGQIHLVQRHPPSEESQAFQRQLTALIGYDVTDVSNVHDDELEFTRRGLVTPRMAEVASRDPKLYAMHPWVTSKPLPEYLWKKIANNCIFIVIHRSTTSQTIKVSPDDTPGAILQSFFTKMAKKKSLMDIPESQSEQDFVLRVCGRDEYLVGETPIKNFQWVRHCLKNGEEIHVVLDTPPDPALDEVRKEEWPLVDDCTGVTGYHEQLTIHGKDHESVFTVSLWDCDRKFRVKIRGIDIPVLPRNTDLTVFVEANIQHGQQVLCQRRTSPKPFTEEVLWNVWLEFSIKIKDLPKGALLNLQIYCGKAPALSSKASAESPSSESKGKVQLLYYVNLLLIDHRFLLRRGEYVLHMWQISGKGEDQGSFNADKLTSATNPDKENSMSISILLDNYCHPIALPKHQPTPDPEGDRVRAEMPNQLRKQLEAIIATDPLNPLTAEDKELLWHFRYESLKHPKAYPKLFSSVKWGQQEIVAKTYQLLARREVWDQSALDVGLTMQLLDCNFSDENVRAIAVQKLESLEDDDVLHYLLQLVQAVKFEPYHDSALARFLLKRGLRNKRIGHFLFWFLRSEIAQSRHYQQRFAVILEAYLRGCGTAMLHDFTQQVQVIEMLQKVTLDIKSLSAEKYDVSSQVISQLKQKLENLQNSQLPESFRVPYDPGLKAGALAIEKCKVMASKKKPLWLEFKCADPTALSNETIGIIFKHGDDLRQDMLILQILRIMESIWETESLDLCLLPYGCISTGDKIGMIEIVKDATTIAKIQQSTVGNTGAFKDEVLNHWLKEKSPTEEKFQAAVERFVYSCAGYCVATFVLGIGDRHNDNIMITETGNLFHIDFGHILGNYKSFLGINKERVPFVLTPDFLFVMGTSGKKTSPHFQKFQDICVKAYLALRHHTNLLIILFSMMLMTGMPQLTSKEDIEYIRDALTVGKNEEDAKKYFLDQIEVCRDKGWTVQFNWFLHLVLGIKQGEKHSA

`Cn1cc(/C=C2\Oc3ccc(NC(=O)C(F)(F)F)cc3C2=O)c2c(-c3ccccc3)ccnc21` [Compound 156, 2,2,2-trifluoro-N-{(2Z)-2-[(1-methyl-4-phenyl-1H-pyrrolo[2,3-b]pyridin-3-yl)methylidene]-3-oxo-2,3-dihydro-1-benzofuran-5-yl}acetamide] showed a melting point of 295 to 302 °C. In addition, in data set [1], the negative-log IC50 (pIC50) was 5.16. Further, the negative-log IC50 (pIC50) in data set [2] is 5.78. Also, the pIC50 in data set [3] is 5.71.
Regarding `Cn1cc(/C=C2\Oc3cccc(O)c3C2=O)c2c(-c3ccc(N4CC5CCC(C4)O5)cc3)ccnc21` [Compound 157, (2Z)-4-hydroxy-2-({1-methyl-4-[4-(8-oxa-3-azabicyclo[3.2.1]oct-3-yl)phenyl]-1H-pyrrolo[2,3-b]pyridin-3-yl}methylidene)-1-benzofuran-3(2H)-one], the melting point was 252 to 260 °C (dec.). The pIC50 in data set [1] is 7.11. For the same compound, the negative-log IC50 (pIC50) in data set [2] is 8.03. For the same compound, the negative logarithm of the IC50 (pIC50) in data set [3] is 7.13.
Take `CN(C)C(=O)Nc1ccc2c(c1)C(=O)/C(=C/c1cn(C)c3nccc(-c4ccccc4)c13)O2` [Compound 161, 1,1-dimethyl-3-{(2Z)-2-[(1-methyl-4-phenyl-1H-pyrrolo[2,3-b]pyridin-3-yl)methylidene]-3-oxo-2,3-dihydro-1-benzofuran-5-yl}urea]: the melting point lay in the range of 275 to 280 °C. In addition, the negative logarithm of the IC50 (pIC50) in data set [1] was less than 5.00. For the same compound, the pIC50 in data set [2] is 6.40. Also, the negative-log IC50 (pIC50) in data set [3] is 5.26.
`Cn1cc(/C=C2\Oc3ccc(NS(C)(=O)=O)cc3C2=O)c2c(-c3ccccc3)ccnc21` [Compound 162, N-{(2Z)-2-[(1-methyl-4-phenyl-1H-pyrrolo[2,3-b]pyridin-3-yl)methylidene]-3-oxo-2,3-dihydro-1-benzofuran-5-yl}methanesulfonamide]: the melting point lay in the range of 257 to 262 °C. Further, the negative logarithm of the IC50 (pIC50) in data set [1] was 5.13. Further, the pIC50 in data set [2] was less than 5.40. Moreover, the pIC50 in data set [3] is 5.23.
`CN1CCN(C(=O)C2CCN(c3ccnc4c3c(/C=C3\Oc5cccc(O)c5C3=O)cn4C)CC2)CC1` [Compound 164, (2Z)-4-hydroxy-2-[(1-methyl-4-{4-[(4-methylpiperazin-1-yl)carbonyl]piperidin-1-yl}-1H-pyrrolo[2,3-b]pyridin-3-yl)methylidene]-1-benzofuran-3(2H)-one] registered a melting point of 239 to 244 °C. The pIC50 in data set [1] was 6.88. For the same compound, the negative-log IC50 (pIC50) in data set [2] was 8.51. For the same compound, the negative logarithm of the IC50 (pIC50) in data set [3] was 7.41.
The compound `Cn1cc(/C=C2\Oc3ccc(NC(=O)Nc4cccnc4)cc3C2=O)c2c(N3CC4CCC(C3)O4)ccnc21` [Compound 167, 1-[(2Z)-2-{[1-methyl-4-(8-oxa-3-azabicyclo[3.2.1]oct-3-yl)-1H-pyrrolo[2,3-b]pyridin-3-yl]methylidene}-3-oxo-2,3-dihydro-1-benzofuran-5-yl]-3-pyridin-3-ylurea] gave a melting point of 226 to 230 °C. The negative logarithm of the IC50 (pIC50) in data set [1] is less than 5.00. In addition, in data set [2], the negative logarithm of the IC50 (pIC50) was 7.84. In addition, the pIC50 in data set [3] is 5.68.
`CNC(=O)Nc1ccc2c(c1)C(=O)/C(=C/c1cn(C)c3nccc(N4CCC(C(=O)N(C)C)CC4)c13)O2` [Compound 168, N,N-dimethyl-1-{1-methyl-3-[(Z)-{5-[(methylcarbamoyl)amino]-3-oxo-1-benzofuran-2(3H)-ylidene}methyl]-1H-pyrrolo[2,3-b]pyridin-4-yl}piperidine-4-carboxamide] registered a melting point of 203 °C. Further, the negative logarithm of the IC50 (pIC50) in data set [1] was 6.31. Further, the pIC50 in data set [2] is 8.17. In addition, in data set [3], the pIC50 is 6.38.
In the case of `CN(C)C(=O)C1CCN(c2ccnc3c2c(/C=C2\Oc4ccc(Br)cc4C2=O)cn3C)CC1` [Compound 169, 1-{3-[(Z)-(5-bromo-3-oxo-1-benzofuran-2(3H)-ylidene)methyl]-1-methyl-1H-pyrrolo[2,3-b]pyridin-4-yl}-N,N-dimethylpiperidine-4-carboxamide], the melting point turned out to be 241 °C. The negative-log IC50 (pIC50) in data set [1] is 5.93. Besides, the negative-log IC50 (pIC50) in data set [2] is 7.94. In data set [3], the negative-log IC50 (pIC50) was less than 5.00.
Turning to `CN(C)C(=O)C1CCN(c2ccnc3c2c(/C=C2\Oc4ccc(NC(=O)N5CCOCC5)cc4C2=O)cn3C)CC1` [Compound 170, N-[(2Z)-2-({4-[4-(dimethylcarbamoyl)piperidin-1-yl]-1-methyl-1H-pyrrolo[2,3-b]pyridin-3-yl}methylidene)-3-oxo-2,3-dihydro-1-benzofuran-5-yl]morpholine-4-carboxamide], the melting point was found to be 128 °C. In addition, the pIC50 in data set [1] is less than 5.00. The pIC50 in data set [2] is 7.04. The pIC50 in data set [3] is 5.51.
The compound `Cn1cc(/C=C2\Oc3ccc(NC(=O)Nc4cccnc4)cc3C2=O)c2c(N3CCC(C(=O)N4CCOCC4)CC3)ccnc21` [Compound 173, 1-[(2Z)-2-({1-methyl-4-[4-(morpholin-4-ylcarbonyl)piperidin-1-yl]-1H-pyrrolo[2,3-b]pyridin-3-yl}methylidene)-3-oxo-2,3-dihydro-1-benzofuran-5-yl]-3-pyridin-3-ylurea] displayed a melting point of 246 to 251 °C. Also, the negative logarithm of the IC50 (pIC50) in data set [1] was less than 5.00. The pIC50 in data set [2] was 7.74. Moreover, in data set [3], the negative logarithm of the IC50 (pIC50) was less than 5.00.
The compound `CNC(=O)Nc1ccc2c(c1)C(=O)/C(=C/c1cn(C)c3nccc(N4CCC(C(=O)N5CCOCC5)CC4)c13)O2` [Compound 174, 1-methyl-3-[(2Z)-2-({1-methyl-4-[4-(morpholin-4-ylcarbonyl)piperidin-1-yl]-1H-pyrrolo[2,3-b]pyridin-3-yl}methylidene)-3-oxo-2,3-dihydro-1-benzofuran-5-yl]urea] registered a melting point of 235 to 240 °C. Besides, in data set [1], the pIC50 was 6.47. Also, the pIC50 in data set [2] is 7.78. Also, in data set [3], the pIC50 was 6.47.
Turning to `Cn1cc(/C=C2\Oc3ccc(C(=O)O)cc3C2=O)c2c(-c3ccccc3)ccnc21` [Compound 176, (2Z)-2-[(1-methyl-4-phenyl-1H-pyrrolo[2,3-b]pyridin-3-yl)methylidene]-3-oxo-2,3-dihydro-1-benzofuran-5-carboxylic acid], the melting point fell in the range of 329 to 342 °C. Also, in data set [1], the pIC50 was less than 5.00. In data set [2], the negative logarithm of the IC50 (pIC50) is 6.35. In addition, the pIC50 in data set [3] is less than 5.00.
`CN(C)CCNC(=O)c1ccc2c(c1)C(=O)/C(=C/c1cn(C)c3nccc(-c4ccccc4)c13)O2` [Compound 187, (2Z)-N-[2-(dimethylamino)ethyl]-2-[(1-methyl-4-phenyl-1H-pyrrolo[2,3-b]pyridin-3-yl)methylidene]-3-oxo-2,3-dihydro-1-benzofuran-5-carboxamide] displayed a melting point of 255 to 256 °C. Moreover, the negative-log IC50 (pIC50) in data set [1] is 7.00. Moreover, the negative logarithm of the IC50 (pIC50) in data set [2] is 6.71. Besides, the pIC50 in data set [3] was 7.47.
With `CN1CCN(C(=O)Nc2ccc3c(c2)C(=O)/C(=C/c2cn(C)c4nccc(-c5ccccc5)c24)O3)CC1` [Compound 188, 4-methyl-N-{(2Z)-2-[(1-methyl-4-phenyl-1H-pyrrolo[2,3-b]pyridin-3-yl)methylidene]-3-oxo-2,3-dihydro-1-benzofuran-5-yl}piperazine-1-carboxamide], the melting point is 211 to 213 °C. The negative-log IC50 (pIC50) in data set [1] was less than 5.00. Further, the negative-log IC50 (pIC50) in data set [2] was 5.61. For the same compound, in data set [3], the pIC50 was less than 5.00.
As for `CN(C)C(=O)C1CCN(c2ccnc3c2c(/C=C2\Oc4ccc(NC(=O)Nc5cccnc5)cc4C2=O)cn3C)CC1` [Compound 189, N,N-dimethyl-1-{1-methyl-3-[(Z)-{3-oxo-5-[(pyridin-3-ylcarbamoyl)amino]-1-benzofuran-2(3H)-ylidene}methyl]-1H-pyrrolo[2,3-b]pyridin-4-yl}piperidine-4-carboxamide], the melting point is 165 to 175 °C (dec.). In data set [1], the negative logarithm of the IC50 (pIC50) is 5.69. Further, in data set [2], the pIC50 is 7.98. Also, the pIC50 in data set [3] is 5.69.
Compound `CN(C)CCNC(=O)Nc1ccc2c(c1)C(=O)/C(=C/c1cn(C)c3nccc(N4CC5CCC(C4)O5)c13)O2` [Compound 193, 1-[2-(dimethylamino)ethyl]-3-[(2Z)-2-{[1-methyl-4-(8-oxa-3-azabicyclo[3.2.1]oct-3-yl)-1H-pyrrolo[2,3-b]pyridin-3-yl]methylidene}-3-oxo-2,3-dihydro-1-benzofuran-5-yl]urea] registered a melting point of 175 to 180 °C. In addition, the pIC50 in data set [1] was 7.35. Moreover, the negative logarithm of the IC50 (pIC50) in data set [2] was 8.25. Besides, the pIC50 in data set [3] was 7.62.
The corresponding values for `CN1CCN(CCNC(=O)Nc2ccc3c(c2)C(=O)/C(=C/c2cn(C)c4nccc(N5CC6CCC(C5)O6)c24)O3)CC1` [Compound 194, 1-[(2Z)-2-{[1-methyl-4-(8-oxa-3-azabicyclo[3.2.1]oct-3-yl)-1H-pyrrolo[2,3-b]pyridin-3-yl]methylidene}-3-oxo-2,3-dihydro-1-benzofuran-5-yl]-3-[2-(4-methylpiperazin-1-yl)ethyl]urea] are 170 to 172 °C, 6.33, 7.47 and 6.63.
With `Cn1cc(/C=C2\Oc3ccc(C(=O)O)cc3C2=O)c2c(N3CC4CCC(C3)O4)ccnc21` [Compound 197, (2Z)-2-{[1-methyl-4-(8-oxa-3-azabicyclo[3.2.1]oct-3-yl)-1H-pyrrolo[2,3-b]pyridin-3-yl]methylidene}-3-oxo-2,3-dihydro-1-benzofuran-5-carboxylic acid], the melting point fell in the range of 285 to 289 °C. In addition, the pIC50 in data set [1] is 5.52. The pIC50 in data set [2] is 6.89. The negative-log IC50 (pIC50) in data set [3] is 5.63.
Compound `Cn1cc(/C=C2\Oc3ccc(NC(=O)Nc4ccncc4)cc3C2=O)c2c(N3CC4CCC(C3)O4)ccnc21` [Compound 198, 1-[(2Z)-2-{[1-methyl-4-(8-oxa-3-azabicyclo[3.2.1]oct-3-yl)-1H-pyrrolo[2,3-b]pyridin-3-yl]methylidene}-3-oxo-2,3-dihydro-1-benzofuran-5-yl]-3-pyridin-4-ylurea] registered a melting point of 257 to 259 °C. Further, in data set [1], the negative-log IC50 (pIC50) was 6.60. Further, in data set [2], the negative-log IC50 (pIC50) was 7.71. The negative logarithm of the IC50 (pIC50) in data set [3] was 6.53.
